From ChEMBL document CHEMBL1121402, “Antitumor agents: diazomethyl ketone and chloromethyl ketone analogues prepared from N-tosyl amino acids” (1980)

Assays:
[1] = species: Mus musculus; test: Anticarcinoma activity of Diazomethyl Ketone against Ehrlich ascites Carcinoma pharmacological screens were reported; 5/6; type: functional
[2] = Screening of Ehrlich ascites carcinoma cells in mice at 20 mg/kg/day intraperitoneally.; type: functional, Mus musculus; settings: route intraperitoneal
[3] = species: Mus musculus; test: Volume of fluid collected 8 days after tumor transplantation in mice.; type: functional; design: unit not given beside the values
[4] = species: Mus musculus; test: Percentage inhibition as antitumor activity in carcinoma CF1 male mice.; type: functional; design: concentration or dose not given beside the values
[5] = system: P388; test: Survival of the mice for average number of days; expressed as average survival days; type: functional, Mus musculus
[6] = system: P388; test: T/C expresses antileukemic activity measured as tested over that of control.; type: functional, Mus musculus
[7] = species: Mus musculus; test: Anticarcinoma activity of Diazomethyl Ketone against Ehrlich ascites Carcinoma pharmacological screens were reported; 7/8; type: functional
[8] = system: P388; test: T/C expresses antileukemic activity measured as tested over that of control; T/C >/= 120 for significant activity; type: functional, Mus musculus
[9] = species: Mus musculus; test: Anticarcinoma activity of Diazomethyl Ketone against Ehrlich ascites Carcinoma pharmacological screens were reported; 5/8; type: functional
[10] = species: Mus musculus; test: Anticarcinoma activity of Diazomethyl Ketone against Ehrlich ascites Carcinoma pharmacological screens were reported; 6/6; type: functional
[11] = species: Mus musculus; test: Anticarcinoma activity of Diazomethyl Ketone against Ehrlich ascites Carcinoma pharmacological screens were reported; 8/8; type: functional
[12] = system: Mus musculus; test: Screening of Ehrlich ascites carcinoma cells in mice at 20 mg/kg/day, intraperitoneally; type: functional; settings: route intraperitoneal
[13] = species: Mus musculus; test: Anticarcinoma activity of Diazomethyl Ketone against Ehrlich ascites Carcinoma pharmacological screens were reported; 12/12; type: functional
[14] = system: P388; test: T/C expresses antileukemic activity measured as tested over that of control; type: functional, Mus musculus
[15] = species: Mus musculus; test: Volume of ascrit fluid collected 8 days after tumor transplantation in mice; type: functional

Compound | Survival after 10 days [1] | ascrit [2] | Volume of ascrit fluid [3] | Inhibition [4] | Survival [5] | T/C [6] | Survival after 10 days [10] | other results
Cc1ccc(S(=O)(=O)N[C@H](C)C(=O)CCl)cc1 | 5 | 18.9 | 0.25 | 98.6% | 11 days | 114 | – | –
Cc1ccc(S(=O)(=O)N2C(=O)CCC2C(=O)CCl)cc1 (stereo unspecified) | – | 31 | 0.95 | 91.4% | 12.8 days | – | – | Survival after 10 days [7]: 7; T/C [8]: 133
CCC(C)C(NS(=O)(=O)c1ccc(C)cc1)C(=O)CCl (stereo unspecified) | – | 34.5 | 1.34 | 86.6% | 10.5 days | 109 | – | Survival after 10 days [9]: 5
Cc1ccc(S(=O)(=O)NC(C(=O)C=[N+]=[N-])C(C)C)cc1 (stereo unspecified) | – | 52.7 | 0.93 | 85.5% | – | – | 6 | –
Cc1ccc(S(=O)(=O)NC(C)C(=O)CCl)cc1 (stereo unspecified) | – | 46.5 | 1.6 | 78.4% | – | – | – | Survival after 10 days [11]: 8
Cc1ccc(S(=O)(=O)NC(CC(C)C)C(=O)C=[N+]=[N-])cc1 (stereo unspecified) | – | 42.5 | 0.63 | 92.2% | 12.1 days | – | 6 | T/C [8]: 125
Cc1ccc(S(=O)(=O)NC(CC(C)C)C(=O)CCl)cc1 (stereo unspecified) | – | 25.5 | 2.65 | 80.4% | 10.3 days | 107 | – | Survival after 10 days [11]: 8
Sc1ncnc2nc[nH]c12 [MERCAPTOPURINE ANHYDROUS] | – | – | 0.3 | 99.9% | – | – | 6 | ascrit [12]: 0.7
N#CCOC(=O)C(Cc1ccc(O)cc1)NC(=O)OCc1ccccc1 (stereo unspecified) | – | 19.7 | 10.82 | 38% | – | – | 6 | –
O=c1[nH]cc(F)c(=O)[nH]1 [FLUOROURACIL] | – | 32.4 | 0.98 | 0% | 9.66 days | – | – | Survival after 10 days [13]: 12; T/C [14]: 100
Cc1ccc(S(=O)(=O)NCCCCCC(=O)CCl)cc1 | 5 | 0.01 | 0.02 | 99.9% | 11.2 days | 116 | – | –
C=COC(=O)C(Cc1ccc(O)cc1)NS(=O)(=O)c1ccc(C)cc1 (stereo unspecified) | – | 17.5 | 4.92 | 75% | – | – | 6 | –
Cc1ccc(S(=O)(=O)NC(C)C(=O)C=[N+]=[N-])cc1 (stereo unspecified) | 5 | – | 1.02 | 87.1% | 11.6 days | 120 | – | –
Cc1ccc(S(=O)(=O)NCC(=O)CCl)cc1 | 5 | 0.01 | 0.04 | 99.9% | 13.2 days | – | – | T/C [8]: 137
Cc1ccc(S(=O)(=O)N2CCC[C@H]2C(=O)C=[N+]=[N-])cc1 | – | 39.8 | 0.63 | 92.7% | – | – | 6 | –
CCC(C)C(NS(=O)(=O)c1ccc(C)cc1)C(=O)C=[N+]=[N-] (stereo unspecified) | 5 | 45.4 | 1.92 | 74.7% | 12.1 days | – | – | T/C [8]: 126
Cc1ccc(S(=O)(=O)NCCCCCC(=O)C=[N+]=[N-])cc1 | 5 | 42.5 | 0.5 | 93.8% | 11.8 days | 122 | – | –
N[C@@H](Cc1ccc(N(CCCl)CCCl)cc1)C(=O)O [MELPHALAN] | – | 0.1 | 3 | 99.9% | – | – | 6 | –
Cc1ccc(S(=O)(=O)N2CCCC2C(=O)CCl)cc1 (stereo unspecified) | – | 30 | 2.7 | 76.5% | 10.2 days | 106 | – | Survival after 10 days [9]: 5
Cc1ccc(S(=O)(=O)NCCC(=O)C=[N+]=[N-])cc1 | – | 44 | 1.66 | 78.8% | 11.5 days | 119 | 6 | –
Cc1ccc(S(=O)(=O)NC(C(=O)CCl)C(C)C)cc1 (stereo unspecified) | – | 46.9 | – | 91.4% | – | – | 6 | Volume of ascrit fluid [15]: 0.63
Cc1ccc(S(=O)(=O)NCCC(=O)CCl)cc1 | 5 | 0.1 | 0.02 | 99.9% | 9.8 days | 101 | – | –
C=COC(=O)C(Cc1ccccc1)NS(=O)(=O)c1ccc(C)cc1 (stereo unspecified) | 5 | 19.2 | 7.74 | 56.8% | – | – | – | –
Cc1ccc(S(=O)(=O)NC(Cc2ccc(O)cc2)C(=O)OCC#N)cc1 (stereo unspecified) | 5 | 15.8 | 9.36 | 56% | – | – | – | –
Cc1ccc(S(=O)(=O)N2C(=O)CCC2C(=O)C=[N+]=N)cc1 (stereo unspecified) | – | 32 | 0.6 | 94.4% | – | – | 6 | –
Cc1ccc(S(=O)(=O)NCC(=O)C=[N+]=[N-])cc1 | – | 56 | 0.03 | 99.5% | – | – | 6 | –
